The first assay has as its target T1, recombinant human cathepsin E (Homo sapiens, UniProt P14091).
T1 construct: purchased R&D Systems
T1 sequence (P14091 54-396): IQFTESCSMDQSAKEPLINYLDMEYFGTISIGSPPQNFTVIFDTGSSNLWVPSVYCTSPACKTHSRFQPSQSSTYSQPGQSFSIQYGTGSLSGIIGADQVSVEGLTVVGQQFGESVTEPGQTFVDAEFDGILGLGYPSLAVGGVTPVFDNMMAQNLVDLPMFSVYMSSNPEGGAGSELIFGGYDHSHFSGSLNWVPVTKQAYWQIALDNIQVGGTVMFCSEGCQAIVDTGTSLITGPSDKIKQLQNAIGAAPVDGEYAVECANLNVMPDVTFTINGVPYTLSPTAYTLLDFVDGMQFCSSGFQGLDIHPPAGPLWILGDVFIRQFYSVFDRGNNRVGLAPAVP
The assay is described as follows: Cathepsin E fluorescent substrate kinetic assay. The class given is biochemical. To be noted: pH 4.5. The text has this:
(§1) Cathepsin D and Cathepsin E Fluorescent Substrate Kinetic Assays
(§2) The MR121 fluorescence assays described below are based on the fact that MR121 forms a non-fluorescent ground state complex with tryptophan. In solution this formation occurs at millimolar concentrations of tryptophan. The mechanism can be used to design a generic biochemical assay for proteases. […] In absence of protease activity, the substrates remain intact and the MR121 fluorescence is reduced by the high local Trp-concentration. If the substrates are cleaved by the enzymes the MR121 fluorescence is recovered.
(§3) The fluorescent substrate cathepsin D and cathepsin E kinetic assays were performed at room temperature in 384-well microtiter plates (black with clear flat bottom, non binding surface plates from Corning) in a final volume of 51 μl. The test compounds were serially diluted in DMSO (15 concentrations, 1/3 dilution steps) and 1 μl of diluted compounds were mixed for 10 min with 40 μl of cathepsin D (from human liver, Calbiochem) diluted in assay buffer (100 mM sodium acetate, 0.05% BSA, pH 5.5; final concentration: 200 nM) or with 40 μl of recombinant human cathepsin E (R&D Systems) diluted in assay buffer (100 mM sodium acetate, 0.05% BSA, pH 4.5; final concentration: 0.01 nM). […] The slope in the linear range of the kinetic was calculated and the IC50 of the test compounds were determined using a four parameter equation for curve fitting.
T3 sequence (P07339 65-412): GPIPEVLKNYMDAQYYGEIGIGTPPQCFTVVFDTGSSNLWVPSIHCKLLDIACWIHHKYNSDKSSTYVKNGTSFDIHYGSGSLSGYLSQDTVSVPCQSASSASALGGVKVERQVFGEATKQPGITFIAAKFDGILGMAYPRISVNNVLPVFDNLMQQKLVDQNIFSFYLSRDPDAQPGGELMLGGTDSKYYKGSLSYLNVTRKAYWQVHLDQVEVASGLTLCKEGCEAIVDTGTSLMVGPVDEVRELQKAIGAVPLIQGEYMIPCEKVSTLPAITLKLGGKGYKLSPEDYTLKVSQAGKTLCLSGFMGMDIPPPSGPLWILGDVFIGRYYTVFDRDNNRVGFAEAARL
For orientation: IC50 means the concentration needed to halve the response being measured. In the case of `N#Cc1ccc(C(=O)Nc2ccc(F)c([C@]3(CF)C[C@@H](C(F)(F)F)OC(N)=N3)c2)nc1` [Example 3, N-(3-((4S,6S)-2-amino-4-(fluoromethyl)-6-(trifluoromethyl)-5,6-dihydro-4H-1,3-oxazin-4-yl)-4-fluorophenyl)-5-cyanopicolinamide], the IC50 is > 200000 nM.

For a further assay, the target named is T2, BACE1 (Homo sapiens, UniProt P56817).
T2 construct: endogenous in cells; host or cells: HEK293 APP cells
T2 sequence (P56817 46-501): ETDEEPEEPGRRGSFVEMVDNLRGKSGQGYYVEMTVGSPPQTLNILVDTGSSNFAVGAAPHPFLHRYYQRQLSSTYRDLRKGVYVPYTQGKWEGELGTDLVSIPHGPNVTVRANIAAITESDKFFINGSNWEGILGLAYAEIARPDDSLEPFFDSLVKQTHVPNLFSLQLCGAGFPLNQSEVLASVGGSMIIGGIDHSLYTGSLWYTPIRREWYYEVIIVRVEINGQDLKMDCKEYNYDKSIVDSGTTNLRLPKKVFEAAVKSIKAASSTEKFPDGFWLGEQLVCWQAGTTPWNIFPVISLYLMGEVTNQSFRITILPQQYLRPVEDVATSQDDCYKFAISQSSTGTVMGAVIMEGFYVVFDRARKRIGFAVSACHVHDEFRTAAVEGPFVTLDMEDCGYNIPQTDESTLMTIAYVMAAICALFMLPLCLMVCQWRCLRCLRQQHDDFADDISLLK
The assay is described as follows: Cellular Aβ-lowering assay (Abeta 40 AlphaLISA). The settings on record: HEK293 APP cells, 18-20 hrs incubation, Aβ 40 in culture supernatant; read-out: BACE1 cell act. Aβ40 IC50. The class given is cell-based. The method, then: Cellular Aβ-Lowering Assay:
The Abeta 40 AlphaLISA Assay can be used. The HEK293 APP cells were seeded in 96 well Microtiter plates in cell culture medium (Iscove's, plus 10% (vv) fetal bovine serum, penicillinstreptomycin) to about 80% confluency and the compounds were added at a 3× concentration in 13 volume of culture medium (final DMSO concentration was kept at 1% vv). After 18-20 hrs incubation at 37° C. and 5% CO2 in a humidified incubator, the culture supernatants were harvested for the determination of Aβ 40 concentrations using Perkin-Elmer Human Amyloid beta 1-40 (high specificity) Kit (Cat# AL275C).
Levels of Aβ 40 in the culture supernatants were calculated as percentage of maximum signal (cells treated with 1% DMSO without inhibitor). The IC50 values were calculated using the Excel XLfit software.
A general note: In Alpha technology, singlet oxygen from a donor bead excites a nearby acceptor bead.
For the compound `NC1=N[C@](CF)(c2cc(NC(=O)c3ccc(OC(F)F)cn3)ccc2F)C[C@@H](C(F)(F)F)O1` [Example 31, N-(3-((4S,6S)-2-Amino-4-(fluoromethyl)-6-(trifluoromethyl)-5,6-dihydro-4H-1,3-oxazin-4-yl)-4-fluorophenyl)-5-(difluoromethoxy)picolinamide], the IC50 came to 7 nM. Still for that read-out and setting: to `NC1=N[C@](CF)(c2cc(NC(=O)c3ccc(OC(F)(F)F)cn3)ccc2F)C[C@@H](C(F)(F)F)O1` [Example 32, N-(3-((4S,6S)-2-Amino-4-(fluoromethyl)-6-(trifluoromethyl)-5,6-dihydro-4H-1,3-oxazin-4-yl)-4-fluorophenyl)-5-(trifluoromethoxy)picolinamide] belongs 7 nM. Take `NC1=N[C@](CF)(c2cc(NC(=O)c3ccc(C(F)F)cn3)ccc2F)C[C@@H](C(F)(F)F)O1` [Example 33, N-(3-((4S,6S)-2-Amino-4-(fluoromethyl)-6-(trifluoromethyl)-5,6-dihydro-4H-1,3-oxazin-4-yl)-4-fluorophenyl)-5-(difluoromethyl)picolinamide]: the IC50 was found to be 10 nM. Still for that read-out and setting: to `NC1=N[C@](CF)(c2cc(NC(=O)c3ccc(OCC(F)(F)F)cn3)ccc2F)C[C@@H](C(F)(F)F)O1` [Example 34, N-(3-((4S,6S)-2-Amino-4-(fluoromethyl)-6-(trifluoromethyl)-5,6-dihydro-4H-1,3-oxazin-4-yl)-4-fluorophenyl)-5-(2,2,2-trifluoroethoxy)picolinamide] belongs 71 nM; to `NC1=N[C@](CF)(c2cc(NC(=O)c3cnc(CF)cn3)ccc2F)C[C@@H](C(F)(F)F)O1` [Example 37, N-(3-((4S,6S)-2-Amino-4-(fluoromethyl)-6-(trifluoromethyl)-5,6-dihydro-4H-1,3-oxazin-4-yl)-4-fluorophenyl)-5-(fluoromethyl)ypyrazine-2-carboxamide], 53 nM.

For `CC#CCOc1cnc(C(=O)Nc2ccc(F)c([C@]3(CF)C[C@@H](C(F)(F)F)OC(N)=N3)c2)cn1` [Example 38, N-(3-((4S,6S)-2-Amino-4-(fluoromethyl)-6-(trifluoromethyl)-5,6-dihydro-4H-1,3-oxazin-4-yl)-4-fluorophenyl)-5-(but-2-ynyloxy)pyrazine-2-carboxamide], the IC50 stood at 0.6 nM. Same read-out and setting: to `NC1=N[C@](CF)(c2cc(NC(=O)c3cnc(OC(F)F)cn3)ccc2F)C[C@@H](C(F)(F)F)O1` [Example 39, N-(3-((4S,6S)-2-Amino-4-(fluoromethyl)-6-(trifluoromethyl)-5,6-dihydro-4H-1,3-oxazin-4-yl)-4-fluorophenyl)-5-(difluoromethoxy)pyrazine-2-carboxamide] belongs 0.4 nM; to `NC1=N[C@](CF)(c2cc(NC(=O)c3cnc(OCC(F)F)cn3)ccc2F)C[C@@H](C(F)(F)F)O1` [Example 40, N-(3-((4S,6S)-2-Amino-4-(fluoromethyl)-6-(trifluoromethyl)-5,6-dihydro-4H-1,3-oxazin-4-yl)-4-fluorophenyl)-5-(2,2-difluoroethoxyl)pyrazine-2-carboxamide], 29 nM. Consider `NC1=N[C@](CF)(c2cc(NC(=O)c3cnc(OCC(F)(F)F)cn3)ccc2F)C[C@@H](C(F)(F)F)O1` [Example 41, N-(3-((4S,6S)-2-Amino-4-(fluoromethyl)-6-(trifluoromethyl)-5,6-dihydro-4H-1,3-oxazin-4-yl)-4-fluorophenyl)-5-(2,2,2-trifluoroethoxyl)pyrazine-2-carboxamide], for which the IC50 is 17 nM. The same measure, in the same setting: then `Cc1cnc(C(=O)Nc2ccc(F)c([C@]3(CF)C[C@@H](C(F)(F)F)OC(N)=N3)c2)cn1` [Example 42, N-(3-((4S,6S)-2-Amino-4-(fluoromethyl)-6-(trifluoromethyl)-5,6-dihydro-4H-1,3-oxazin-4-yl)-4-fluorophenyl)-5-methylpyrazine-2-carboxamide], with 64 nM; and `NC1=N[C@](CF)(c2cc(NC(=O)c3cnc(OCF)cn3)ccc2F)C[C@@H](C(F)(F)F)O1` [Example 43, N-(3-((4S,6S)-2-Amino-4-(fluoromethyl)-6-(trifluoromethyl)-5,6-dihydro-4H-1,3-oxazin-4-yl)-4-fluorophenyl)-5-(fluoromethoxy)pyrazine-2-carboxamide], with 3 nM; and `NC1=N[C@](CF)(c2cc(NC(=O)c3cnc(C(F)F)cn3)ccc2F)C[C@@H](C(F)(F)F)O1` [Example 45, N-(3-((4S,6S)-2-Amino-4-(fluoromethyl)-6-(trifluoromethyl)-5,6-dihydro-4H-1,3-oxazin-4-yl)-4-fluorophenyl)-5-(difluoromethyl)pyrazine-2-carboxamide], with 39 nM. On to `NC1=N[C@](CF)(c2cc(NC(=O)c3coc(CF)n3)ccc2F)C[C@@H](C(F)(F)F)O1` [Example 47, N-(3-((4S,6S)-2-Amino-4-(fluoromethyl)-6-(trifluoromethyl)-5,6-dihydro-4H-1,3-oxazin-4-yl)-4-fluorophenyl)-2-(fluoromethyl)oxazole-4-carboxamide], for which the IC50 turned out to be 1 nM. With `N#Cc1ccc(C(=O)Nc2ccc(F)c([C@]3(C(F)F)C[C@H](C(F)(F)F)OC(N)=N3)c2)nc1` [Example 48, N-(3-((4S,6R)-2-Amino-4-(difluoromethyl)-6-(trifluoromethyl)-5,6-dihydro-4H-1,3-oxazin-4-yl)-4-fluorophenyl)-5-cyanopicolinamide], the IC50 amounted to 520 nM. With `N#Cc1ccc(C(=O)Nc2ccc(F)c([C@]3(C(F)F)C[C@@H](C(F)(F)F)OC(N)=N3)c2)nc1` [Example 49, N-(3-((4S,6S)-2-Amino-4-(difluoromethyl)-6-(trifluoromethyl)-5,6-dihydro-4H-1,3-oxazin-4-yl)-4-fluorophenyl)-5-cyanopicolinamide], the IC50 worked out at 82 nM.

Another assay addresses T3, cathepsin D (from human liver) (Homo sapiens, UniProt P07339).
T3 construct: cathepsin D (from human liver, Calbiochem) diluted in assay buffer; purchased Calbiochem; host or cells: human liver
In words: Cathepsin D fluorescent substrate kinetic assay. The class given is biochemical. To be noted: pH 5.5.
Description: as §1, §2, §3
With `N#Cc1ccc(C(=O)Nc2ccc(F)c([C@]3(CF)C[C@@H](C(F)(F)F)OC(N)=N3)c2)nc1` [Example 3, N-(3-((4S,6S)-2-amino-4-(fluoromethyl)-6-(trifluoromethyl)-5,6-dihydro-4H-1,3-oxazin-4-yl)-4-fluorophenyl)-5-cyanopicolinamide], the concentration for half-maximal inhibition (IC50) was > 200000 nM.

These data come from patent US9067926B2, “Fluoromethyl-5,6-dihydro-4H-[1,3]OXAZINES” (F. Hoffmann-La Roche AG, priority 2012, dated 2015).
